Source: US8952025B2, “Multifunctional radical quenchers and their uses” (Arizona Board of Regents, A Body Corporate of the State of …, priority 2010, dated 2015)

Legend:
[1] = test system: cultured FRDA cells; assay: Cytoprotection of cultured FRDA cells depleted of glutathione; assay type: cell-based; details: pretreated then depleted of glutathione, read-out: Viable Cells (%)
Text: The cells were pretreated with the compounds and then depleted of glutathione. The cell viability is expressed as percentage of total number of cells.

[2] = test system: CoQ10 deficient lymphocyte cell line; assay: Total intracellular ATP concentration assay (luciferin-luciferase); assay type: cell-based, human; details: 48 h, glucose free media with galactose
Text: The reductions of mitochondrial respiratory chain activity in CoQ10 deficient patients have been reported (Quinzii G M, Lopez L C, Von-Moltke J, Naini A, Krishna S, Schuelke M, Salviati L, Navas P, DiMauro S, and Hirano, M. Respiratory chain dysfunction and oxidative stress correlate with severity of primary CoQ10 deficiency. FASEB J. 2008; 22:1874-1885). The use of CoQ10 analogues to normalize and restore the respiratory chain activities could provide valuable therapeutic approach. We have evaluated the efficiency of oxidative phosphorylation in CoQ10 deficient lymphocyte (GM17932) in presence of tested CoQ10 analogues by measuring total cellular ATP content using (ViaLight® Plus ATP monitoring reagent kit, Lonza).
CoQ10 deficient lymphocyte and normal lymphocyte cell lines were obtained from Coriell Cell Repositories (Camden, N.J.; catalog number GM-17932, GM-158151, respectively). CoQ10 deficient lymphocytes were cultured under glucose-free media supplemented with galactose for two weeks to force energy production predominantly through oxidative phosphorylation rather than glycolysis (Quinzii et al.; Robinson B H, Petrova-Benedict R, Buncic J R, Wallace D C. Nonviability of cells with oxidative defects in galactose medium: A screening test for affected patient fibroblast. Biochem. Med. Metab. Biol. 1992; 48:122-126). Lymphocytes were cultured in RPMI 1640 medium glucose-free (Gibco, Grand Island, N.Y.) supplemented with 25 mM galactose, 2 mM glutamine and 1% penicillin-streptomycin (Cellgro), and 10%, dialyzed fetal bovine serum FBS 0.5 μg/mL) (GEMINI, Bio-Product), Briefly, lymphocytes (2×10^5 cell/mL), were plated (1 mL in 12-well plates) and treated with the test compounds at final concentrations of 5, 10 μM, and 25 μM and incubated at 37° C. for 48 h in a humidified atmosphere containing 5% CO2 in air. The test compounds were prepared by first making 20 mM stock solutions in DMSO. Cells were transferred (100 μL) to 96-well microtiter black-walled cell culture plates (Costar, Corning, N.Y.). The total intracellular ATP level was measured in a luminator (Clarity™ luminescence microplate reader) with the ATP Bioluminescence Assay Kit (ViaLight® Plus ATP monitoring reagent kit, Lonza) following the manufacturer's instructions. The standard curve of ATP was obtained by serial dilution of 1 mM ATP solution. After calibration against the ATP standard, the ATP content of the cell extract was determined and normalized for protein content in the cell.
To enforce the respiratory chain-dependent ATP synthesis, cells were grown for 48 hours in glucose free media supplemented with 25 mM galactose and 10% dialyzed fetal bovine serum (glucose concentration less than 0.5 μg/mL). FIG. 20 illustrates total intracellular ATP levels in CoQ10 deficient and normal lymphocytes measured using the luciferin-luciferase reaction. The levels of ATP shown in Table 1 are relative to the 100% value obtained for the CoQ10 deficient cells in FIG. 20.

[3] = test system: NADH oxidase, bovine heart mitochondrial complex (I, III, IV); assay: NADH oxidase inhibition assay, submitochondrial particles; assay type: biochemical; details: percentage of control
Experimental: Beef heart mitochondria were obtained by a large-scale procedure. Inverted submitochondrial particles (SMP) were prepared by the method of Matsuno-Yagi and Hatefi (J. Biol. Chem. 260 (1985), p. 14424), and stored in a buffer containing 0.25 M sucrose and 10 mM Tris-HCl (pH 7.4) at −80° C. Inhibitory effects of compounds on bovine heart mitochondrial complex (I, III, IV) were evaluated. Maximal dimethyl sulfoxide concentration never exceeded 2% and had no influence on the control enzymatic activity. Beef heart SMP were diluted to 0.5 mg/mL. The enzymatic activities were assayed at 30° C. and monitored spectrophotometrically with a Beckman Coulter DU-530 (340 nm, c=6.22 mM^−1 cm^−1). NADH oxidase activity was determined in a reaction medium (2.5 mL) containing 50 mM Hepes, pH 7.5, containing 5 mM MgCl2. The final mitochondrial protein concentration was 30 μg. After the pre-equilibration of SMP with inhibitor for 5 min, the initial rates were calculated from the linear portion of the traces.
The activity is expressed as percentage of control.

Structure (SMILES) | viability at 0.1 µM [1] | viability at 0.5 µM [1] | viability at 2.5 µM [1] | further results
CCCCCc1nc(N(C)C)nc(C)c1O [drawing 127] | 46 ± 3.5% | 78.7 ± 4% | 81.3 ± 5.1% | 
CCCCCCCCCCc1nc(N(C)C)nc(OC)c1O [drawing 130] | 40.3 ± 1.5% | 83.7 ± 1.5% | 82.7 ± 2.5% | 
CCCCCCCCCCCCCCCCc1nc(N(C)C)nc(OC)c1O [drawing 131] | 43.7 ± 3.1% | 66.3 ± 1.5% | 80.5 ± 5% | 
COc1cc(N(C)C)nc(CCCCCCCCCCO)c1O | 33 ± 4.2% | 28.3 ± 2.1% | 29.5 ± 2.1% | 
CCCCCCCCCCc1nc(N(C)C)nc(OC)c1O [drawing 121] |  |  |  | Total ATP concentration (% of control) ([2]; 5 μM): 109.4 ± 5.0 % of control; Total ATP concentration (% of control) ([2]; 10 μM): 110.5 ± 6.5 % of control; Total ATP concentration (% of control) ([2]; 25 μM): 68.3 ± 2.7 % of control
Cc1cc(N(C)C)nc(CCCCCCCCCCO)c1O [drawing 137] |  |  |  | NADH oxidase activity (%) ([3]; 1 μM): 90%; NADH oxidase activity (%) ([3]; 2.5 μM): 58%; NADH oxidase activity (%) ([3]; 5 μM): 38%; NADH oxidase activity (%) ([3]; 10 μM): 20%
CCCCCCCCCCc1nc(N(C)C)nc(C)c1O [drawing 128] | 54.5 ± 3.3% | 84 ± 3.6% | 76.3 ± 5% | 
CCCCCc1nc(N(C)C)nc(C)c1O [drawing 132] |  |  |  | NADH oxidase activity (%) ([3]; 1 μM): 85%
CCCCCCCCCCCCCCCCc1nc(N(C)C)nc(C)c1O [drawing 120] |  |  |  | Total ATP concentration (% of control) ([2]; 5 μM): 111.5 ± 1.8 % of control; Total ATP concentration (% of control) ([2]; 10 μM): 106.9 ± 2.7 % of control; Total ATP concentration (% of control) ([2]; 25 μM): 101.6 ± 3.1 % of control
CCCCCCCCCCc1nc(N(C)C)nc(OC)c1O [drawing 141] |  |  |  | NADH oxidase activity (%) ([3]; 1 μM): 38%; NADH oxidase activity (%) ([3]; 5 μM): 38%; NADH oxidase activity (%) ([3]; 10 μM): 10%
Cc1cc(N(C)C)nc(CCCCCCCCCCO)c1O [drawing 124] | 54 ± 5.2% | 76.5 ± 2.1% | 81.7 ± 5% | 
CCCCCCCCCCCCCCCCc1nc(N(C)C)nc(C)c1O [drawing 129] | 61.3 ± 2.9% | 84.4 ± 3.4% | 88 ± 1% | 
COc1nc(N(C)C)nc(CCCCCCCCCCO)c1O [drawing 125] | 55.6 ± 5.7% | 80 ± 4% | 78.3 ± 7.5% | 
COc1nc(N(C)C)nc(CCCCCCCCCCO)c1O [drawing 138] |  |  |  | NADH oxidase activity (%) ([3]; 1 μM): 62.5%; NADH oxidase activity (%) ([3]; 2.5 μM): 40%; NADH oxidase activity (%) ([3]; 5 μM): 50%; NADH oxidase activity (%) ([3]; 10 μM): 25%
